Results taken from patent publication US20250344698A1, “A METHOD OF CONTROLLING WEEDS” (SYNGENTA CROP PROTECTION AG, priority 2022, published 2025).

What was measured:
Type in all cases: in vivo
[1] = tested on: Amaranthus palmeri population homozygous for a glycine at codon 128 in PPX2L ('128G'); experiment: Postemergence glasshouse test, dead or alive assessment, 128G population; conditions: 14 days after application; for Average % Survival of 14 repetitions: R128G
Source text: (§1) The commercial standard PPO inhibitor fomesafen and compound 8 of the present application were applied to three Amaranthus palmeri populations in order to determine the impact of mutations at codon 128 in PPX2L from the wild-type arginine to a glycine or methionine.
(§2) Seeds were sown in seed trays containing ericaceous compost and covered with vermiculite. When approximately 1 inch in height plants were transplanted 1 per pot into 3 inch diameter pots containing ericaceous compost. The pots were watered and maintained in a glasshouse providing a 16 H photoperiod of 180 μmol m^−2 s^−1 with temperatures of 24° C. day and 18° C. night and 65% relative humidity until 3 inches tall at which point the herbicides were applied at the use rates specified in Table 1 below to 14 individual plants per rate of each of the biotypes.
(§3) All treatments were applied as dilutions in reverse osmosis water and with the commercial adjuvant Adigor® at 0.5% by volume. Prior to dilution with water compound 8 was initially dissolved to a 5% solution in a solvent mixture comprising 11.12% Emulsogen EL 360, 44.44% Dowanol DPM and 44.44% N-methyl pyrrolidone. Herbicide applications were carried out in a track sprayer with a flat fan nozzle applying the herbicide treatments at a rate of 200 L/ha^−1.
(§4) After treatment, the plants were watered and maintained in a glasshouse providing a 16 H photoperiod of 180 μmol m^−2 s^−1 with temperatures of 24° C. day and 18° C. night and 65% relative humidity until 14 days after application at which point they were assessed on a ‘dead or alive’ basis. The plants still alive at this point were classed as surviving the herbicide application and the averaged results of this assessment are presented in Table 1.

[2] = tested on: Amaranthus palmeri population homozygous for a methionine at codon 128 in PPX2L ('128M'); experiment: Postemergence glasshouse test, dead or alive assessment, 128M population; conditions: 14 days after application; for use rate achieving complete control (i.e. no surviving plants): '128M' population, postemergence; for Average % Survival of 14 repetitions: R128M
Source text: as §1, §2, §3, §4

[3] = tested on: Amaranthus palmeri known PPO inhibitor sensitive population ('Sensitive'); experiment: Postemergence glasshouse test, dead or alive assessment, PPO inhibitor sensitive population; conditions: 14 days after application; for use rate achieving complete control (i.e. no surviving plants): 'Sensitive' population, postemergence; for Average % Survival of 14 repetitions: Sensitive
Source text: as §1, §2, §3, §4

CCOC(=O)C1(C)CC(c2cc(-n3c(=O)cc(C(F)(F)F)n(C)c3=O)c(F)cc2Cl)=NO1 (stereo not drawn) [Compound 8, 3-(2-chloro-4-fluoro-5-(3-methyl-2,6-dioxo-4-trifluoromethyl-3,6-dihydropyrimidin-1(2H)-yl)phenyl)-5-methyl-4,5-dihydroisoxazole-5-carboxylic acid ethyl ester]
79%: Average % Survival of 14 repetitions ([2]; 4 g ai/ha^−1 postemergence)
50%: Average % Survival of 14 repetitions ([1]; 8 g ai/ha^−1 postemergence) | Average % Survival of 14 repetitions ([3]; 1 g ai/ha^−1 postemergence)
57%: Average % Survival of 14 repetitions ([2]; 8 g ai/ha^−1 postemergence)
0%: Average % Survival of 14 repetitions ([1]; 16 g ai/ha^−1 postemergence) | Average % Survival of 14 repetitions ([1]; 32 g ai/ha^−1 postemergence) | Average % Survival of 14 repetitions ([1]; 64 g ai/ha^−1 postemergence) | Average % Survival of 14 repetitions ([1]; 128 g ai/ha^−1 postemergence) | Average % Survival of 14 repetitions ([2]; 16 g ai/ha^−1 postemergence) | Average % Survival of 14 repetitions ([2]; 32 g ai/ha^−1 postemergence) | Average % Survival of 14 repetitions ([2]; 64 g ai/ha^−1 postemergence) | Average % Survival of 14 repetitions ([2]; 128 g ai/ha^−1 postemergence) | Average % Survival of 14 repetitions ([3]; 8 g ai/ha^−1 postemergence) | Average % Survival of 14 repetitions ([3]; 16 g ai/ha^−1 postemergence) | Average % Survival of 14 repetitions ([3]; 32 g ai/ha^−1 postemergence) | Average % Survival of 14 repetitions ([3]; 64 g ai/ha^−1 postemergence) | Average % Survival of 14 repetitions ([3]; 128 g ai/ha^−1 postemergence)
16 g ai/ha^−1: use rate achieving complete control (i.e. no surviving plants) ([1]; '128G' population, postemergence) | use rate achieving complete control (i.e. no surviving plants) [2]
14%: Average % Survival of 14 repetitions ([3]; 4 g ai/ha^−1 postemergence)
93%: Average % Survival of 14 repetitions ([1]; 4 g ai/ha^−1 postemergence)
43%: Average % Survival of 14 repetitions ([3]; 2 g ai/ha^−1 postemergence)
100%: Average % Survival of 14 repetitions ([1]; 0.25 g ai/ha^−1 postemergence) | Average % Survival of 14 repetitions ([1]; 0.5 g ai/ha^−1 postemergence) | Average % Survival of 14 repetitions ([1]; 1 g ai/ha^−1 postemergence) | Average % Survival of 14 repetitions ([1]; 2 g ai/ha^−1 postemergence) | Average % Survival of 14 repetitions ([2]; 0.25 g ai/ha^−1 postemergence) | Average % Survival of 14 repetitions ([2]; 0.5 g ai/ha^−1 postemergence) | Average % Survival of 14 repetitions ([2]; 1 g ai/ha^−1 postemergence) | Average % Survival of 14 repetitions ([2]; 2 g ai/ha^−1 postemergence) | Average % Survival of 14 repetitions ([3]; 0.25 g ai/ha^−1 postemergence) | Average % Survival of 14 repetitions ([3]; 0.5 g ai/ha^−1 postemergence)
8 g ai/ha^−1: use rate achieving complete control (i.e. no surviving plants) [3]

CS(=O)(=O)NC(=O)c1cc(Oc2ccc(C(F)(F)F)cc2Cl)ccc1[N+](=O)[O-] [Fomesafen]
14%: Average % Survival of 14 repetitions ([3]; 4 g ai/ha^−1 postemergence)
36%: Average % Survival of 14 repetitions ([1]; 64 g ai/ha^−1 postemergence) | Average % Survival of 14 repetitions ([1]; 128 g ai/ha^−1 postemergence)
8 g ai/ha^−1: use rate achieving complete control (i.e. no surviving plants) [3]
128 g ai/ha^−1: use rate achieving complete control (i.e. no surviving plants) [2]
93%: Average % Survival of 14 repetitions ([1]; 32 g ai/ha^−1 postemergence) | Average % Survival of 14 repetitions ([2]; 16 g ai/ha^−1 postemergence) | Average % Survival of 14 repetitions ([3]; 1 g ai/ha^−1 postemergence)
71%: Average % Survival of 14 repetitions ([3]; 2 g ai/ha^−1 postemergence)
5/14: individuals killed ([1]; '128G' population, 128 g ai/ha^−1)
100%: Average % Survival of 14 repetitions ([1]; 0.25 g ai/ha^−1 postemergence) | Average % Survival of 14 repetitions ([1]; 0.5 g ai/ha^−1 postemergence) | Average % Survival of 14 repetitions ([1]; 1 g ai/ha^−1 postemergence) | Average % Survival of 14 repetitions ([1]; 2 g ai/ha^−1 postemergence) | Average % Survival of 14 repetitions ([1]; 4 g ai/ha^−1 postemergence) | Average % Survival of 14 repetitions ([1]; 8 g ai/ha^−1 postemergence) | Average % Survival of 14 repetitions ([1]; 16 g ai/ha^−1 postemergence) | Average % Survival of 14 repetitions ([2]; 0.25 g ai/ha^−1 postemergence) | Average % Survival of 14 repetitions ([2]; 0.5 g ai/ha^−1 postemergence) | Average % Survival of 14 repetitions ([2]; 1 g ai/ha^−1 postemergence) | Average % Survival of 14 repetitions ([2]; 2 g ai/ha^−1 postemergence) | Average % Survival of 14 repetitions ([2]; 4 g ai/ha^−1 postemergence) | Average % Survival of 14 repetitions ([2]; 8 g ai/ha^−1 postemergence) | Average % Survival of 14 repetitions ([3]; 0.25 g ai/ha^−1 postemergence) | Average % Survival of 14 repetitions ([3]; 0.5 g ai/ha^−1 postemergence)
21%: Average % Survival of 14 repetitions ([2]; 64 g ai/ha^−1 postemergence)
0%: Average % Survival of 14 repetitions ([2]; 128 g ai/ha^−1 postemergence) | Average % Survival of 14 repetitions ([3]; 8 g ai/ha^−1 postemergence) | Average % Survival of 14 repetitions ([3]; 16 g ai/ha^−1 postemergence) | Average % Survival of 14 repetitions ([3]; 32 g ai/ha^−1 postemergence) | Average % Survival of 14 repetitions ([3]; 64 g ai/ha^−1 postemergence) | Average % Survival of 14 repetitions ([3]; 128 g ai/ha^−1 postemergence)
43%: Average % Survival of 14 repetitions ([2]; 32 g ai/ha^−1 postemergence)
